ChEMBL document CHEMBL4330097 (J Med Chem, 2019)
Converted amounts (≈) assume the structure as drawn.

How the values were obtained:
[1] = Lipophilicity, log D of the compound in acetonitrile/water at 1:1 ratio at pH 7.5 by RP-HPLC analysis; type: physicochemical; details: acetonitrile/water 1:1 (RP-HPLC)
[2] = Apparent permeability across basolateral to apical side in human Caco2 cells at 2 uM after 2 hrs by LC-MS/MS analysis; type: ADME, cell-based; details: Caco-2
[3] = Apparent permeability across apical to basolateral side in human Caco2 cells at 2 uM after 2 hrs by LC-MS/MS analysis; type: ADME, cell-based; details: Caco-2
[4] = Clearance in human liver microsomes at 1 uM up 60 mins in presence of NADP and glucose-6-phosphate by LC-MS/MS analysis; type: ADME, Microsome; details: 1 h
[5] = Maximal oral bioavailability in Han/Wistar rat; type: ADME, organism-based; details: in vivo
[6] = Clearance in Han/Wistar rat hepatocytes at 1 uM up 90 mins by HPLC-MS/MS analysis; type: ADME, cell-based, Hepatocyte
[7] = Maximal oral bioavailability in human; type: ADME, organism-based; details: in vivo
[8] = Chemical stability of the compound assessed as degradation rate at pH 1 to 10 after 24 hrs by HPLC-UV analysis; type: physicochemical; details: buffer, pH 1, 24 h
[9] = Aqueous solubility of the compound in DMSO at 6.5 after 24 hrs by HPLC-MS/MS analysis; type: physicochemical; details: aqueous medium with DMSO, pH 6.5

chromatographic logD [1]: 2.4 | Papp B→A at 2 h, 2 µM [2]: 10.7 ×10⁻⁶ cm/s | Papp A→B at 2 h, 2 µM [3]: 18.4 ×10⁻⁶ cm/s | CLH [4]: 13 mL/min/kg | Fmax [5]: 13% | CLH [6]: 61.7 mL/min/kg | Fmax [7]: 38% | Stability [8]: Stable | solubility at 24 h [9]: 218 µg/mL (≈ 423 µM)
SMILES: CN1CCN(c2cnc3c(C4CCN(C(=O)c5ccc(OC(F)(F)F)cc5N)CC4)ncnc3c2)CC1 [BAY-885]
